Test results as given in US7122326B2 (Universite Louis Pasteur, priority 2001, dated 2006).
Entries after “also recorded” stand apart in the source; their conditions may differ.

Key:
[1] = system: xanthurenic acid binding site(s); assay: [3H]-XA binding to synaptic membranes, without ions; design: species or system rat
[2] = target: xanthurenic acid binding site(s); assay: [3H]-XA binding to synaptic membranes in the presence of copper ions; design: species or system rat; settings: pH 6.5
[3] = system: extracellular dopamine release in the PFC; assay: Microdialysis of dopamine, DOPAC and HVA in PFC after local XA; settings: rat, in vivo
Method: • Animals: Adult male Wistar rats weighing 250 to 275 g were housed in pairs in plastic cages with a standard 7 a.m.–7 p.m. light cycle and free access to food and water. Animals studies were conducted in accordance with the requirements of the EEC directive of 24 Nov. 1986 (86/609/EEC). • Chemicals: XA, 6-OHDA hydrobromide, 2,4,5-trihydroxyphenylethylamine and desipramine were purchased from Sigma. NCS-486 was produced by the Laboratoire de Pharmacochimie of the CNRS in Strasbourg. • Surgical protocol: An L-shaped cannula with 4 mm tip (CMA 12, Carnegie, Sweden) was used for the experiments. The dialysis membrane, 500 μm in diameter, was made of polycarbonate-polyether with a 20 Kda cutoff. The probe guide was implanted in the PFC under stereotactic guidance. Animals were anesthetized with ketamine hydrochloride (150 mg/kg i.p.)
The experiments were carried out in conscious rats with and without induced lesions, 24 to 48 hours after surgical insertion of the microdialysis probe. The composition of the microdialysis medium was as follows: 147 mM NaCl; 1.2 mM CaCl2; 1.2 mM MgCl2; 4.0 mM KCl, pH 6.5. The dialysis rate was 1 μl/min (CMA 100 pump, Carnegie). Dialysates were collected in 20 minute fractions and stored immediately in liquid nitrogen pending analysis.
These compounds were analyzed by HPLC with electrochemical detection. The chromatographic system consisted of a 25 cm×4.6 mm C18 column maintained at a constant temperature of 30° C. The mobile phase was 50 mM NaH2PO4 containing 0.1 mM EDTA and 6% methanol, the pH of the solution was adjusted to 4.85.
Retrodialyzed XA concentrations were respectively 1 μM (black circles), 5 μM (black squares) and 20 μM (black triangles). XA was applied during a 20 minute dialysis. The results are expressed as the percentage of mean baseline dopamine release (determined on eight 20-min dialysis fractions prior to stimulation by XA) (FIG. 20).

rat [4] = assay: Open field test of global reactivity (XA); settings: in vivo
rat [5] = assay: Social interactions between two congeners; settings: in vivo
From the text: This tendency was confirmed by a test evaluating social interactions between two congeners (Ramos et al., Behav. Brain Res., 1997, 85: 57–69).

XA transport system = assay: XA transport in differentiated NCB-20 cells; format: cell-based
Method: The cell culture was prepared by using a culture dish of NCB-20 cells at 80% confluence. The culture medium was removed and replaced with 10 ml of DMEM supplemented with 10% FCS. Cells were then detached and suspended by repeated passage of the medium through a 2 mm gauge needle. Cells were then counted in a hemocytometer. The final suspension was adjusted to a cell density of 3.10^4 cells/ml in DMEM medium supplemented with 10% FCS and 1 mM cAMP. Petri dishes were seeded with 2 ml of this suspension and incubated at 37° C. in a moisture-saturated CO2 atmosphere. Cells were used four days after inoculation.
The culture medium of 4-day NCB-20 cell cultures differentiated in cAMP was replaced by one of the buffer solutions described hereinabove (Krebs with or without Na^+, to respectively evaluate Na^+-dependent active transport and passive transport, which occurs mainly through diffusion) according to the type of experiment planned. Culture dishes were placed in a water bath at 37° C. for 10 minutes. The buffer was then replaced by the same buffer solution containing [^3H]-XA and XA at concentrations ranging from […]. [^3H]-XA was present at very low concentration and served only as a tracer of the cold (non-radiolabelled) XA. After 1 minute of incubation, the solutions were aspirated and the cells washed three times for 10 seconds with 1 ml of the same buffer (Krebs with or without Na^+), kept on ice. Active transport requires energy (ATP) and is markedly slowed at temperatures below 37° C. The washed cell layer was frozen in dishes then, the next day, distilled water was added to obtain a solution of cellular debris containing the intracellular radiolabel ([^3H]-XA). Freezing facilitated homogenization by repeated passage of the solution through a pipette. A 900 μl aliquot was added to scintillation fluid (Rotiszint®, 4 ml). The remainder of the solution was sampled to assay protein by the BCA method (Uptima). The radioactivity measured in the scintillation counter was converted by means of a suitable calibration curve into picomoles of XA taken up by the cells per mg of protein.
For each incubation time, transport was measured on nine dishes of NCB-20 cells with Na^+ and without Na^+. Ten different time points were studied: 0-10-30 seconds and 1, 2, 3, 5, 8, 10, 12 minutes. Four different experiments were carried out.
For each XA concentration, XA transport was measured on nine dishes of NCB-20 cells with Na^+ and nine dishes without Na^+. Seven different concentrations were tested: 1-5-12.5-25-50-100-200 μM. Four independent experiments were carried out.
Four milliliters of scintillator were added to the tubes containing 900 μl of the cell suspension obtained. The control tube contained 900 μl of doubly-distilled water, and the tubes used to measure specific activity contained 10 μl of the radioactive solutions used as reagent during the experiment and 890 μl of doubly-distilled water. The tubes were closed, vortexed and left overnight at 4° C. before being counted in the scintillation counter. This count measures intracellular radioactivity which is directly proportional to the quantity of XA that entered the cell through passive or active transport. To calculate the amount of active transport, passive transport (Krebs without Na^+) is simply subtracted from total transport (Krebs with Na^+).
Other endogenous molecules which might be transported by the XA transporter were tested. […] The results are shown in the histogram in FIG. 34 as the percentage entering the cells relative to transport in the presence of radiolabelled XA alone (=100%).

rat [6] = settings: in vivo; cited from earlier work
rat [7] = settings: in vivo; cited from earlier work; remark: listed apart in the source
mice = settings: mouse, in vivo; cited from earlier work
[8] = system: Grp 94 and calreticulin expression; settings: cited from earlier work
[9] = read-out: IC50, two site binding model, first site
[10] = read-out: IC50, two site binding model, second site

O=C(O)c1cc(O)c2cccc(O)c2n1 [XA, xanthurenic acid]
kob (observed association rate) ([1]; pH 7.4): 0.53 ± 0.16 min⁻¹ | time to binding equilibrium ([1]; pH 7.4): 10 to 15 min | Kd ([1]; pH 7.4, read-out: Kd (saturation experiment)): 743 nM | IC50 [1, 9]: 300 nM | IC50 [1, 10]: 57000 nM | Kd ([1]; read-out: Kd=koff/kon): ~330 nM | IC50 [2, 9]: 1000 nM | IC50 [2, 10]: 114000 nM | Kd ([2]; read-out: Kd (saturation experiment)): 7560 nM | DOPAC release in PFC [3]: decreased slightly | HVA release in PFC [3]: decreased slightly | effect on dopamine release in PFC [3]: had no effect on dopamine release | increase of extracellular dopamine release in PFC [3]: approximately 250% | doses to obtain an anxiolytic effect in animals (rat [4]): less than 50 mg/kg | exploration of the center of the cage / open field (rat [4]): significantly increased; also recorded: promotes movement of the animal to the center of the lighted open field | sedation in the open field test (rat [4]): absence of sedation | duration of social interactions (rat [5]): significant increase in the duration of social interactions; also recorded: induces an increase in the duration of social interactions | sedation in the social interaction test (rat [5]): significant sedative effect | increase of transport in the presence of sodium (XA transport system): about 20% | Km (XA transport system; read-out: Km of intracellular transport): 105 µM | analgesic effect in hotplate and tail flick tests (rat [6]): analgesic effect | ECG (rat [7]): does not modify the ECG | head twitch behavior (mice): does not induce head twitch behavior | expression of Grp 94 and of calreticulin [8]: induces an increase in the expression | xanthurenic acid concentrations required to produce these effects [8]: in the millimolar range
